Data from patent publication US8247211B2, “Glycopeptide antibiotics” (American Cyanamid Company, priority 2001, dated 2012).
Converted amounts (≈) assume the structure as drawn. Each block holds one molecule with its values, some of them ahead of it.

Assays:
Assay in all cases: In vitro antibacterial evaluation: minimum inhibitory concentration (MIC), broth dilution method
Format in all cases: cell-based
Settings in all cases: 18 hours at 35° C.
Streptococcus sp. = system: Streptococcus sp.
How it was run: (§1)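 Inoculum: 5×10^5 CFU/mL. Range: 64-0.06 μg/mL. Medium: Muller-Hinton II […]; NCCLS M7-A2 broth dilution. Endpoint: lowest concentration inhibiting growth. Strains include methicillin-, penicillin- and/or vancomycin-resistant clinical isolates.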

Staphylococcus sp. = system: Staphylococcus sp.
How it was run: as §1

Escherichia coli = system: Escherichia coli
How it was run: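 Following NCCLS approved standard M7-A2, compounds are serially diluted from 64 to 0.06 μg/mL in Muller-Hinton II […] and inoculated at 5×10^5 CFU/mL; the MIC is the minimum concentration at which growth is inhibited.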

Enterococcus sp. = system: Enterococcus sp.
How it was run: as §1

[1] = Streptococcus agalactiae (GC 4564)
[2] = Streptococcus pneumoniae (ATCC 6301)
[3] = Streptococcus pneumoniae (GC 1894)
[4] = Streptococcus pneumoniae (GC 4565)
[5] = Streptococcus pyogenes (GC 4563)
[6] = broth dilution, inoculum 5×10^5 CFU/mL
[7] = Enterococcus faecalis (GC 2242)
[8] = Enterococcus faecalis (GC 2691)
[9] = Enterococcus faecalis (GC 3059)

MIC Streptococcus agalactiae (GC 4564) (Streptococcus sp.; [1]): 2 µg/mL (≈ 1.37 µM)
MIC Streptococcus pneumoniae (ATCC 6301) (Streptococcus sp.; [2]): 1 µg/mL (≈ 0.685 µM)
MIC Streptococcus pneumoniae (GC 1894) (Streptococcus sp.; [3]): 0.5 µg/mL (≈ 0.343 µM)
MIC Streptococcus pneumoniae (GC 4565) (Streptococcus sp.; [4]): 1 µg/mL (≈ 0.685 µM)
MIC Streptococcus pyogenes (GC 4563) (Streptococcus sp.; [5]): 1 µg/mL (≈ 0.685 µM)
MIC Streptococcus agalactiae (GC 4564) (Streptococcus sp.; [6]): 2 µg/mL (≈ 1.37 µM)
MIC Streptococcus pneumoniae (ATCC 6301) (Streptococcus sp.; [6]): 1 µg/mL (≈ 0.685 µM)
MIC Streptococcus pneumoniae (GC 1894) (Streptococcus sp.; [6]): 0.5 µg/mL (≈ 0.343 µM)
MIC Streptococcus pneumoniae (GC 4565) (Streptococcus sp.; [6]): 1 µg/mL (≈ 0.685 µM)
MIC Streptococcus pyogenes (GC 4563) (Streptococcus sp.; [6]): 1 µg/mL (≈ 0.685 µM)
MIC Coagulase Negative Staphylococcus (GC 4547) (Staphylococcus sp.): 2 µg/mL (≈ 1.37 µM)
MIC Coagulase Negative Staphylococcus (GC 4548) (Staphylococcus sp.): 2 µg/mL (≈ 1.37 µM)
MIC Coagulase Negative Staphylococcus (GC 4549) (Staphylococcus sp.): 2 µg/mL (≈ 1.37 µM)
MIC Coagulase Negative Staphylococcus (GC 4551) (Staphylococcus sp.): 4 µg/mL (≈ 2.74 µM)
MIC Coagulase Negative Staphylococcus (GC 6257) (Staphylococcus sp.): 1 µg/mL (≈ 0.685 µM)
MIC Staphylococcus aureus (ATCC 29213) (Staphylococcus sp.): 4 µg/mL (≈ 2.74 µM)
MIC Staphylococcus aureus (GC 1131) (Staphylococcus sp.): 4 µg/mL (≈ 2.74 µM)
MIC Staphylococcus aureus (GC 3051) (Staphylococcus sp.): 4 µg/mL (≈ 2.74 µM)
MIC Staphylococcus aureus (GC 3053) (Staphylococcus sp.): 8 µg/mL (≈ 5.48 µM)
MIC Staphylococcus aureus (GC 4541) (Staphylococcus sp.): 4 µg/mL (≈ 2.74 µM)
MIC Staphylococcus aureus (GC 4542) (Staphylococcus sp.): 4 µg/mL (≈ 2.74 µM)
MIC Staphylococcus aureus (GC 4544) (Staphylococcus sp.): 8 µg/mL (≈ 5.48 µM)
MIC Staphylococcus aureus (GC 4545) (Staphylococcus sp.): 2 µg/mL (≈ 1.37 µM)
MIC Staphylococcus aureus-SMITH (GC 4543) (Staphylococcus sp.): 4 µg/mL (≈ 2.74 µM)
MIC Escherichia coli (ATCC 25922) (Escherichia coli): >64 µg/mL
MIC Escherichia coli (GC 4559) (Escherichia coli): >64 µg/mL
MIC Escherichia coli (GC 4560) (Escherichia coli): 2 µg/mL (≈ 1.37 µM)
MIC Enterococcus avium (GC 4558) (Enterococcus sp.): 16 µg/mL (≈ 11 µM)
MIC Enterococcus faecalis (ATCC 29212) (Enterococcus sp.): 16 µg/mL (≈ 11 µM)
MIC Enterococcus faecalis (GC 2242) (Enterococcus sp.; [7]): 16 µg/mL (≈ 11 µM)
MIC Enterococcus faecalis (GC 2691) (Enterococcus sp.; [8]): 16 µg/mL (≈ 11 µM)
MIC Enterococcus faecalis (GC 3059) (Enterococcus sp.; [9]): 32 µg/mL (≈ 21.9 µM)
MIC Enterococcus faecalis (GC 4552) (Enterococcus sp.): 32 µg/mL (≈ 21.9 µM)
MIC Enterococcus faecalis (GC 4553) (Enterococcus sp.): 32 µg/mL (≈ 21.9 µM)
MIC Enterococcus faecalis (GC 4554) (Enterococcus sp.): 32 µg/mL (≈ 21.9 µM)
MIC Enterococcus faecalis (GC 6189) (Enterococcus sp.): 16 µg/mL (≈ 11 µM)
MIC Enterococcus faecium (GC 2243) (Enterococcus sp.): 16 µg/mL (≈ 11 µM)
MIC Enterococcus faecium (GC 4556) (Enterococcus sp.): 32 µg/mL (≈ 21.9 µM)
MIC Enterococcus faecium (GC 4557) (Enterococcus sp.): 4 µg/mL (≈ 2.74 µM)
MIC Enterococcus faecalis (GC 2242) (Enterococcus sp.; [6]): 16 µg/mL (≈ 11 µM)
MIC Enterococcus faecalis (GC 2691) (Enterococcus sp.; [6]): 16 µg/mL (≈ 11 µM)
MIC Enterococcus faecalis (GC 3059) (Enterococcus sp.; [6]): 32 µg/mL (≈ 21.9 µM)
SMILES: CCOc1cc(COCC2OC(OC3C(CO)OC(Oc4ccc(CC5NC(=O)C(C(C)c6ccccc6)NC(=O)CNC(=O)C(CO)NC(=O)C(C(O)C6CNC(=N)N6C6OC(CO)C(O)C(O)C6O)NC(=O)C(C(O)C6CNC(=N)N6)NC5=O)cc4)C(O)C3O)C(O)C(O)C2O)ccc1OC (centres unmarked) [Example 238]
MIC Staphylococcus haemolyticus (GC 4546) (Staphylococcus sp.): 2 µg/mL (≈ 1.37 µM)

MIC Streptococcus agalactiae (GC 4564) (Streptococcus sp.; [1]): 0.25 µg/mL (≈ 0.164 µM)
MIC Streptococcus pneumoniae (ATCC 6301) (Streptococcus sp.; [2]): <0.06 µg/mL
MIC Streptococcus pneumoniae (GC 1894) (Streptococcus sp.; [3]): <0.06 µg/mL
MIC Streptococcus pneumoniae (GC 4565) (Streptococcus sp.; [4]): <0.06 µg/mL
MIC Streptococcus pyogenes (GC 4563) (Streptococcus sp.; [5]): 0.25 µg/mL (≈ 0.164 µM)
MIC Streptococcus agalactiae (GC 4564) (Streptococcus sp.; [6]): 0.25 µg/mL (≈ 0.164 µM)
MIC Streptococcus pneumoniae (ATCC 6301) (Streptococcus sp.; [6]): <0.06 µg/mL
MIC Streptococcus pneumoniae (GC 1894) (Streptococcus sp.; [6]): <0.06 µg/mL
MIC Streptococcus pneumoniae (GC 4565) (Streptococcus sp.; [6]): <0.06 µg/mL
MIC Streptococcus pyogenes (GC 4563) (Streptococcus sp.; [6]): 0.25 µg/mL (≈ 0.164 µM)
MIC Coagulase Negative Staphylococcus (GC 4547) (Staphylococcus sp.): 2 µg/mL (≈ 1.31 µM)
MIC Coagulase Negative Staphylococcus (GC 4548) (Staphylococcus sp.): 1 µg/mL (≈ 0.657 µM)
MIC Coagulase Negative Staphylococcus (GC 4549) (Staphylococcus sp.): 1 µg/mL (≈ 0.657 µM)
MIC Coagulase Negative Staphylococcus (GC 4551) (Staphylococcus sp.): 2 µg/mL (≈ 1.31 µM)
MIC Coagulase Negative Staphylococcus (GC 6257) (Staphylococcus sp.): 1 µg/mL (≈ 0.657 µM)
MIC Staphylococcus aureus (ATCC 29213) (Staphylococcus sp.): 2 µg/mL (≈ 1.31 µM)
MIC Staphylococcus aureus (GC 1131) (Staphylococcus sp.): 2 µg/mL (≈ 1.31 µM)
MIC Staphylococcus aureus (GC 3051) (Staphylococcus sp.): 1 µg/mL (≈ 0.657 µM)
MIC Staphylococcus aureus (GC 3053) (Staphylococcus sp.): 2 µg/mL (≈ 1.31 µM)
MIC Staphylococcus aureus (GC 4541) (Staphylococcus sp.): 4 µg/mL (≈ 2.63 µM)
MIC Staphylococcus aureus (GC 4542) (Staphylococcus sp.): 2 µg/mL (≈ 1.31 µM)
MIC Staphylococcus aureus (GC 4544) (Staphylococcus sp.): 2 µg/mL (≈ 1.31 µM)
MIC Staphylococcus aureus (GC 4545) (Staphylococcus sp.): 2 µg/mL (≈ 1.31 µM)
MIC Staphylococcus aureus-SMITH (GC 4543) (Staphylococcus sp.): 2 µg/mL (≈ 1.31 µM)
MIC Escherichia coli (ATCC 25922) (Escherichia coli): >64 µg/mL
MIC Escherichia coli (GC 4559) (Escherichia coli): >64 µg/mL
MIC Escherichia coli (GC 4560) (Escherichia coli): 1 µg/mL (≈ 0.657 µM)
MIC Enterococcus avium (GC 4558) (Enterococcus sp.): 4 µg/mL (≈ 2.63 µM)
MIC Enterococcus faecalis (ATCC 29212) (Enterococcus sp.): 4 µg/mL (≈ 2.63 µM)
MIC Enterococcus faecalis (GC 2242) (Enterococcus sp.; [7]): 4 µg/mL (≈ 2.63 µM)
MIC Enterococcus faecalis (GC 2691) (Enterococcus sp.; [8]): 4 µg/mL (≈ 2.63 µM)
MIC Enterococcus faecalis (GC 3059) (Enterococcus sp.; [9]): 4 µg/mL (≈ 2.63 µM)
MIC Enterococcus faecalis (GC 4552) (Enterococcus sp.): 4 µg/mL (≈ 2.63 µM)
MIC Enterococcus faecalis (GC 4553) (Enterococcus sp.): 4 µg/mL (≈ 2.63 µM)
MIC Enterococcus faecalis (GC 4554) (Enterococcus sp.): 4 µg/mL (≈ 2.63 µM)
MIC Enterococcus faecalis (GC 6189) (Enterococcus sp.): 4 µg/mL (≈ 2.63 µM)
MIC Enterococcus faecium (GC 2243) (Enterococcus sp.): 4 µg/mL (≈ 2.63 µM)
MIC Enterococcus faecium (GC 4556) (Enterococcus sp.): 4 µg/mL (≈ 2.63 µM)
MIC Enterococcus faecium (GC 4557) (Enterococcus sp.): 2 µg/mL (≈ 1.31 µM)
MIC Enterococcus faecalis (GC 2242) (Enterococcus sp.; [6]): 4 µg/mL (≈ 2.63 µM)
MIC Enterococcus faecalis (GC 2691) (Enterococcus sp.; [6]): 4 µg/mL (≈ 2.63 µM)
MIC Enterococcus faecalis (GC 3059) (Enterococcus sp.; [6]): 4 µg/mL (≈ 2.63 µM)
SMILES: COc1ccc(COCC2OC(OC3C(CO)OC(Oc4ccc(CC5NC(=O)C(C(C)c6ccccc6)NC(=O)CNC(=O)C(CO)NC(=O)C(C(O)C6CNC(=N)N6C6OC(CO)C(O)C(O)C6O)NC(=O)C(C(O)C6CNC(=N)N6)NC5=O)cc4)C(O)C3O)C(O)C(O)C2O)cc1OCc1ccccc1 (centres unmarked) [Example 239]
MIC Staphylococcus haemolyticus (GC 4546) (Staphylococcus sp.): 1 µg/mL (≈ 0.657 µM)
